In brackets after ≈: the same amount, converted by molar mass. Activity calls are given as the source filed them. The calls are words filed in the database; no cut-off is given here.

The target in data set [1] is T1, 17-beta-hydroxysteroid dehydrogenase type 1 (Homo sapiens) (UniProt P14061).
T1 sequence (whole entry): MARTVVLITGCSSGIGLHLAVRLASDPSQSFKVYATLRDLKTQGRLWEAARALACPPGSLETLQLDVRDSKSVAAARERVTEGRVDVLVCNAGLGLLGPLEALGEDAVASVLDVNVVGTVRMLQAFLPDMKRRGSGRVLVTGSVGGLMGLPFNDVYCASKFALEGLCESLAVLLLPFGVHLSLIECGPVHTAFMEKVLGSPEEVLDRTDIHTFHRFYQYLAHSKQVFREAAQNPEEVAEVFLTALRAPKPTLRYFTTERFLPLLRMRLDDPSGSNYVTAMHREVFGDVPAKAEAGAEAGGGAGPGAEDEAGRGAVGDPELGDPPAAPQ
Put plainly: Inhibition of human placental cytosolic 17beta-HSD1 using [2,4,6,7-3H]-labeled E1/E1 as substrate and NADH at 1 uM after 10 mins by HPLC based radioflow detection method.

A short description of data set [2]: Solubility of the compound in PBS at 200 uM at pH 7.4 measured after 24 hrs. The class given is physicochemical.
The target of data set [3] is T2, 17-beta-hydroxysteroid dehydrogenase 14 (Homo sapiens, UniProt Q9BPX1).
T2 sequence (Q9BPX1 whole entry): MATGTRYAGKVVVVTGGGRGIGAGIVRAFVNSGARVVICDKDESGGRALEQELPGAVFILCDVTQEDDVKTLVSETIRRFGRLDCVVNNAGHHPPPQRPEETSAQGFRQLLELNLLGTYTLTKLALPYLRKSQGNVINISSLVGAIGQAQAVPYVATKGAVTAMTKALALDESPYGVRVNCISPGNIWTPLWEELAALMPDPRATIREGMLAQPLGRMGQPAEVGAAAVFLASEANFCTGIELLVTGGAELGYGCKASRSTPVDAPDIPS
Put plainly: Binding affinity to recombinant 17beta-HSD14 (unknown origin) expressed in Escherichia coli BL21 pLysS strain using E2 as substrate in presence of NAD measured continuously for 15 mins by fluorimetric method.

For data set [4], the target named is T3, 17-beta-hydroxysteroid dehydrogenase type 2 (Homo sapiens) (UniProt P37059).
T3 sequence (whole entry): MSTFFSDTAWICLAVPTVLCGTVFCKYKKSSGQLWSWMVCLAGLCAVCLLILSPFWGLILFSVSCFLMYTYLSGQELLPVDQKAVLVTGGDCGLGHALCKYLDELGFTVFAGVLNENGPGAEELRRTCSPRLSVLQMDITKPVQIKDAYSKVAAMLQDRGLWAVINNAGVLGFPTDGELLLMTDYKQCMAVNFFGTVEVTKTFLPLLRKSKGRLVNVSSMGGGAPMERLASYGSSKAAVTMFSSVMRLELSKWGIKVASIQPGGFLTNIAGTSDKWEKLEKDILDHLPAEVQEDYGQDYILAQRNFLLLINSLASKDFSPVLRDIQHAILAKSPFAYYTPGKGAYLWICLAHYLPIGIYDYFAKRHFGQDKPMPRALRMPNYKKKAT
Put plainly: Inhibition of human placental cytosolic 17beta-HSD2 using [2,4,6,7-3H]-labeled E2/E2 as substrate and NADH at 1 uM after 10 mins by HPLC based radioflow detection method.

For data set [5], the target named is T4, 3-hydroxyacyl-CoA dehydrogenase type-2 (Homo sapiens) (UniProt Q99714).
T4 sequence (whole entry): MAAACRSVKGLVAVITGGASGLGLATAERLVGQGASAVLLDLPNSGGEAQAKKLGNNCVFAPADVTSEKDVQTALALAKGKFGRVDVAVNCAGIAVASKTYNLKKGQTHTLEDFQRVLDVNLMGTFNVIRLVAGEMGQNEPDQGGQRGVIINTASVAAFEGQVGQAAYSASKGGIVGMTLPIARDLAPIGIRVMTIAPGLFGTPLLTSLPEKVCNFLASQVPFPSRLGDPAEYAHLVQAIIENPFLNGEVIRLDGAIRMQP
The data set can be described thus: Inhibition of human full length N-terminal GST-tagged 17beta-HSD10 expressed in Escherichia coli BL21 DE3 Codon plus using [6,7-3H]-labeled E2/E2 as substrate and NADH at 1 uM after 30 mins by HPLC based radioflow detection method.

Data set [6] can be described thus: Cytotoxicity against HEK293 cells assessed as cell survival at 20 uM after 72 hrs by MTT assay relative to control. It counts as cell-based. The following applies: human, read-out: Survival.
A further data set addresses T5, Estrogen receptor (Homo sapiens, UniProt P03372).
T5 sequence (P03372 whole entry): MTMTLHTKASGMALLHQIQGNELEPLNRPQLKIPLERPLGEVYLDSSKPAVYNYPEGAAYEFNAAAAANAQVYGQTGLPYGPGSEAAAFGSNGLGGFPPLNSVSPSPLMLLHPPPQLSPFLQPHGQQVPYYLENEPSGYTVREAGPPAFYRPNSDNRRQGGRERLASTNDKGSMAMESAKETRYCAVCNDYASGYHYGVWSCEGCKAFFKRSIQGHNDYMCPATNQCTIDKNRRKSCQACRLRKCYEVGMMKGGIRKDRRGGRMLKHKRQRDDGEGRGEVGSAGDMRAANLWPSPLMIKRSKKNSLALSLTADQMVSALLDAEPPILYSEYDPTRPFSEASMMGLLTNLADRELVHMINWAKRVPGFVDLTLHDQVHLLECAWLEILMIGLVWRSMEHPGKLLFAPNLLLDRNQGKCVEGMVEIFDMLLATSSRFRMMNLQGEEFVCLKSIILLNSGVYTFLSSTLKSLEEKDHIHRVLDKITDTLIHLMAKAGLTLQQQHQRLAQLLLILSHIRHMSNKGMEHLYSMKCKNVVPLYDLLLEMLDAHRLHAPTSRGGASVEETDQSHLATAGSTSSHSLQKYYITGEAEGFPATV
The data set can be described thus: Agonist activity at ERalpha (unknown origin) expressed in human U2OS cells after 24 hrs by luciferase reporter gene assay. The class given is cell-based.

A short description of data set [7]: Cytotoxicity against HEK293 cells assessed as decrease in cell viability after 72 hrs by MTT assay. The class given is cell-based. As to conditions: human, read-out: IG50. For orientation: Tetrazolium assays rely on reduction of a dye to a coloured formazan, in cell work by metabolically active cells.
Data set [8] deals with T6, ERalpha (estrogen receptor) (Homo sapiens, UniProt P03372).
T6 sequence (P03372 whole entry): T5 sequence (P03372 whole entry)
Put plainly: Agonist activity at ERalpha (unknown origin) expressed in human U2OS cells after 24 hrs by luciferase reporter gene assay relative to E2. It counts as cell-based. The following applies: U2OS cells expressing ERalpha, read-out: Activity. (In general: Reporter assays use an easily measured gene product as a stand-in for the process of interest.)

In data set [9] the target is T7, 17-beta-hydroxysteroid dehydrogenase 14 (Homo sapiens) (UniProt Q9BPX1).
T7 sequence (whole entry): T2 sequence (Q9BPX1 whole entry)
The data set can be described thus: Inhibition of recombinant 17beta-HSD14 (unknown origin) expressed in Escherichia coli BL21 pLysS strain at 100 uM using E2 as substrate in presence of NAD measured continuously for 15 mins by fluorimetric method.

The target in data set [10] is T7, 17-beta-hydroxysteroid dehydrogenase 14 (Homo sapiens). Put plainly: Inhibition of recombinant 17beta-HSD14 (unknown origin) expressed in Escherichia coli BL21 pLysS strain at 2 uM using E2 as substrate in presence of NAD measured continuously for 15 mins by fluorimetric method.

A word on the inhibition: it is the relative decrease from the control value, in per cent. As a reminder, the solubility is the concentration that dissolves in the medium under given conditions. A higher solubility goes with a readily soluble substance. For orientation: Ki means a dissociation constant, usually derived from enzyme kinetics or from competition with a known ligand. Turning to `Cc1cc(-c2ccc3ccc(C(=O)c4ccc(F)c(O)c4)nc3c2)ccc1O`, the values for the inhibition in data set [1] and in data set [4] were 11% and 80%, respectively. The solubility at 24 h, 200 µM in [2] is 13 to 25 µM (≈ 4.85 to 9.33 µg/mL). The Ki in data set [3] turned out to be 6 nM. Also, the inhibition result in [5] was “inactive”.
As for `Cc1ccc2nc(C(=O)c3ccc(F)c(O)c3)ccc2c1`, the inhibition is 12% in data set [1] and 78% in data set [4]. In data set [2], this molecule gave a solubility at 24 h, 200 µM of 25 to 50 µM (≈ 7.03 to 14.1 µg/mL). In data set [3], the inhibition constant Ki is 6 nM. In data set [5], the inhibition result is “inactive”. In [6], the viability at 72 h, 20 µM stood at 80%.
Turning to `O=C(Nc1ccc(F)c(O)c1)c1cccc(-c2cccc(O)c2F)n1`, the Ki in [3] is 336 nM.
For `Oc1cc(Oc2cccc(-c3cccc(O)c3F)n2)ccc1F`, the inhibition in data set [1] was determined as 69%; in [4], 100%; in data set [5] it was 17%. Further, the solubility at 24 h, 200 µM in [2] is greater than 200 µM. Moreover, the Ki in data set [3] amounted to 58 nM.
`O=C(c1ccc(F)c(O)c1)c1ccc2ccc(-c3nnn[nH]3)cc2n1`: the inhibition entry in data set [1] and in data set [5] was “inactive” each time. Further, in data set [2], the solubility at 24 h, 200 µM lay within 50 to 100 µM (≈ 16.8 to 33.5 µg/mL). The inhibition constant (Ki) in data set [3] is 10 nM. The same molecule displayed an inhibition in data set [4] of 52%. Further, on Estrogen receptor, the Activity entry is listed as “Not Active”. The GI50 at 72 h in [7] is greater than 100000 nM. Further, in data set [6], the viability at 72 h, 20 µM amounted to 80%.
For `O=C(c1ccc(F)c(O)c1)c1ccc2cc(O)ccc2n1`, the inhibition in data set [1] stood at 20%; in data set [4], 71%. In data set [2], this molecule registered a solubility at 24 h, 200 µM greater than 200 µM. Also, the Ki in [3] is 119 nM. In addition, the inhibition result in [5] was “inactive”. Besides, in [7], the GI50 at 72 h was greater than 100000 nM. Moreover, the viability at 72 h, 20 µM in data set [6] came to 80%.
Turning to `Nc1ccc2ccc(C(=O)c3ccc(F)c(O)c3)nc2c1`, the inhibition in data set [1] worked out at 21%; in data set [4], 83%. Besides, the solubility at 24 h, 200 µM in data set [2] is greater than 200 µM. The Ki in data set [3] worked out at 34 nM. Also, the inhibition entry in data set [5] was “inactive”.
As to `N#Cc1ccc2ccc(C(=O)c3ccc(F)c(O)c3)nc2c1`, the inhibition result in data set [1] and in [5] was “inactive” each time. The solubility at 24 h, 200 µM in [2] is 25 to 50 µM (≈ 7.31 to 14.6 µg/mL). For the same molecule, the Ki in data set [3] worked out at 9 nM. Further, the inhibition in data set [4] stood at 56%. The Activity result at Estrogen receptor was “Not Active”. Further, in data set [6], the viability at 72 h, 20 µM is 80%.
Consider `Oc1cc(Nc2cccc(-c3cccc(O)c3F)n2)ccc1F`, for which the inhibition in data set [1] is 57%; in data set [4], 82%. In data set [2], this molecule registered a solubility at 24 h, 200 µM greater than 200 µM. The inhibitory constant (Ki) in data set [3] came to 47 nM. Further, the inhibition entry in data set [5] was “inactive”.
Consider `CN(C(=O)c1ccc(F)c(O)c1)c1cccc(-c2cccc(O)c2F)n1`, for which the inhibitory constant (Ki) in data set [3] was 2030 nM.
Turning to `O=C(c1ccc(F)c(O)c1)c1cccc(-c2cccc(O)c2F)n1`, the inhibition came to 8% in data set [1] and 56% in [4]. In addition, the solubility at 24 h, 200 µM in data set [2] was greater than 200 µM. In addition, the inhibition result in data set [5] is “inactive”. Further, the Emax at 24 h in data set [8] worked out at 13%. Moreover, the GI50 at 72 h in data set [7] was greater than 100000 nM. Moreover, the viability at 72 h, 20 µM in [6] stood at 80%.
In data set [2], `COc1cc(C(=O)c2ccc3ccccc3n2)ccc1F` came in with a solubility at 24 h, 200 µM of 100 to 200 µM (≈ 28.1 to 56.3 µg/mL). Further, the inhibition in [9] came out at 21%.
For `O=C(c1ccc(F)c(O)c1)c1ccc2ccccc2n1`, the inhibition in [1] was found to be 6%; in data set [10], 69%; in [4], 76%. Further, the solubility at 24 h, 200 µM in data set [2] is greater than 200 µM. Also, in data set [3], the Ki is 12 nM. For the same molecule, in [5], the inhibition entry is “inactive”.
Regarding `O=C(c1ccc(F)c(O)c1)c1ccc2ccccc2c1`, the inhibition is 64% in [1] and 96% in data set [4]. Also, the solubility at 24 h, 200 µM in data set [2] lay in the range of 25 to 50 µM (≈ 6.66 to 13.3 µg/mL). Moreover, the Ki in data set [3] was found to be 6 nM. Besides, in [5], the inhibition entry was “inactive”.
Consider `C=C(c1ccc(F)c(O)c1)c1cccc(-c2cccc(O)c2F)n1`, for which the inhibition in data set [1] turned out to be 88%; in [4], 100%. Also, the solubility at 24 h, 200 µM in data set [2] was greater than 200 µM. Moreover, in data set [3], the Ki amounted to 1.5 nM. Moreover, the inhibition entry in data set [5] was “inactive”. The GI50 at 72 h in data set [7] is greater than 100000 nM. In addition, the viability at 72 h, 20 µM in [6] is 80%.
On to `CN(c1ccc(F)c(O)c1)c1cccc(-c2cccc(O)c2F)n1`, for which the values for the inhibition in data set [1], in data set [4] and in data set [5] were 99%, 100% and 19%, respectively. This molecule also returned a solubility at 24 h, 200 µM in data set [2] greater than 200 µM. Further, the Ki in [3] worked out at 42 nM.
In the case of `O=C(Nc1cccc(-c2cccc(O)c2F)n1)c1ccc(F)c(O)c1`, the Ki in data set [3] worked out at 686 nM.

Source of the values: ChEMBL document CHEMBL4152285, “Structure-based design and profiling of novel 17β-HSD14 inhibitors” (Eur J Med Chem, 2018).
